Results reported in patent US20260060960A1, “GAMMA-SECRETASE INHIBITORS FOR USE IN THE TREATMENT OF INHERITED EPIDERMOLYSIS BULLOSA” (OSPEDALE PEDIATRICO BAMBINO GESU', priority 2022, published 2026).

Key:
Format in all cases: cell-based, human
[1] = system: primary fibroblast strains from healthy controls (NH-FBs); test: MTT viability/proliferation assay on primary fibroblasts from healthy controls
Text: 3-(4,5-dimethyl-2-thiazolyl)-2,5-diphenyl-2H-tetrazolium bromide (MTT) assay showing the impact of DAPT and PF-03084014 treatment on viability and proliferation rate of three primary fibroblast strains from healthy controls (NH-FBs). Absorbance values (Abs) were converted in percentage by using the following formula: AbsDAPT or PF-03084014×100/AbsREFERENCE WELLS. Data are presented as mean±standard deviation (SD) of at least eight technical replicates per condition. Cells treated with the vehicle DMSO (Panel A), and cells analyzed 24 h after seeding (T0) (Panel B) were considered as reference wells. NH-FBs were growth in DMEM medium containing 10% fetal bovine serum (FBS). […] Based on the results, it was chosen to use GSIs at 20 μM (black arrows) as it was the minimal drug concentration inducing a reduction of cell proliferation after 24 h of treatment. (Panel C) Immunoblotting analysis showing the protein levels of the cleaved and biologically active form of NOTCH1 receptor (N1-ICD, NOTCH1 intracellular domain) in nuclear extracts of primary fibroblasts from RDEB patients (RDEB-FBs, n=2) treated for 24 h with DAPT and PF-03084014 at different doses, ranging from 0.1 to 20 μM. Cells treated with the vehicle dimethyl sulfoxide (DMSO) were used as control. The reduced nuclear localization of N1-ICD indicates Notch pathway inhibition. […] Lamin B1 (LMNB1) and glyceraldehyde-3-phosphate dehydrogenase (GAPDH) served as loading controls for the nuclear and cytoplasmic protein fractions, respectively. **P-value <0.01, ***P<0.001.
GSIs halt the processing of Notch receptor, and, in turn, play a role as indirect inhibitors of Notch signaling cascade. Following their reconstitution at 10 mM in dimethyl sulfoxide (DMSO), GSI aliquots were stored at −20° C. until use, avoiding freeze-thaw cycles. GSI treatment was performed in DMEM containing 10% FBS, unless otherwise specified. According to previous reports, RDEB-FBs were serum-starved overnight in DMEM containing BSA prior to be treated with GSIs. Cells treated with the vehicle DMSO were used as controls. GSIs were used at different concentrations ranging from 1 to 20 μM depending on the assay. […]
Proliferation rate was assessed by 3-(4,5-dimethyl-2-thiazolyl)-2,5-diphenyl-2H-tetrazolium bromide (MTT) assay, following the manufacturer's protocol. […] Thereafter, cells were lysed in DMSO to dissolve formazan crystals and absorbance values were recorded at 560 nm with an Infinite F50 microplate reader (Tecan, Mannedorf, Switzerland). Values recorded 24 h after cell seeding, before GSI stimulation (TO) were used as reference. […]

[2] = system: primary fibroblasts from RDEB patients (RDEB-FBs); test: Collagen lattice contraction (CLC) assay; details: for cell contractility (collagen lattice contraction) / contractility (collagen lattice contraction): RDEB-FBs, 20 μM, 48 h; for contractility (collagen lattice contraction): presence of TGF-β1 2 ng/mL
Experimental: RDEB-FBs (5×10^5 cells) were mixed in a collagen buffer and seeded into 12-well plates as previously described. After gelation, fibroblast-populated collagen lattices were detached from the wells and left floating. RDEB-FBs were treated with 20 μM of DAPT and PF-03804014 in DMEM containing 0.1% BSA, in the presence or absence of TGF-β1 at 2 ng/mL, as contraction booster. JAG1-silenced RDEB-FBs were embedded in collagen lattices 24 h after siRNA transfection. In both cases, images were acquired with ChemiDoc™ XRS+ System (Bio-Rad, Hercules, CA, USA) at the detachment of collagen lattices from the wells (time 0, TO) and after 48 h. Gel areas were measured by ImageJ software and photos at TO were used as references.

[3] = system: primary fibroblasts from RDEB patients (RDEB-FBs); test: Collagen deposition analysis (Sircol assay); details: 96 h
Experimental: The amount of collagens deposited into the extracellular matrix (ECM) was measured by using the Sirius red staining-based Sircol assay (Biocolor, Carrickfergus, Northern Ireland-UK). Briefly, two RDEB-FB strains were seeded into 12-well plates (55.000 cells/well), and growth for two days until they reached about 80-90% confluence. Then, cells were treated for 96 h with PF-03084014 (5 μM), DAPT (20 μM) or the corresponding amount of vehicle DMSO in serum-free media. GSI stimulation was performed in the presence or in the absence of TGF-β1 (2 ng/mL) as inducer of collagen synthesis. In order to further improve collagen deposition, RDEB-FB cultures were daily supplemented with 50 μg/mL of L-ascorbic acid (Merck) and 100 μg/mL of dextran sulfate 500 kDa (Merck). ECM collagens were solubilized by scraping culture wells with a solution of 0.5 M acid acetic containing pepsin at 0.1 mg/mL (Pepsin […].4.23.1, product code: […], Merck) and incubated overnight at 4° C. in agitation. The day after, ECM lysates were neutralized with 100 μL of Acid Neutralizing Reagent (Biocolor), and concentrated by overnight incubation in ice-water mix, in the presence of 200 μL of Isolation & Concentration Reagent (Biocolor). Sample absorbance values were measured by BioTek Synergy H1 microplate reader (Agilent, Santa Clara, CA, USA) at 560 nm and analyzed through the GEN5TM software v. 3.04 (Agilent).

Row | SMILES | proliferation rate (MTT) ([1]; 20 and 40 μM, 48 h, vs DMSO) | cell contractility (collagen lattice contraction) ([2]; absence of TGF-β1) | contractility (collagen lattice contraction) [2] | collagen deposition into the ECM ([3]; 20 μM, with or without TGF-β1) | cell viability (MTT) compared to cells before GSI treatment (T0) ([1]; 40 μM) | fibroblast proliferation / cytotoxicity (MTT) ([1]; 5-20 μM) | effects on proliferation rate (MTT) ([1]; 20 and 40 μM at 24 h, 5 and 10 μM at 48 h, vs DMSO) | contractile properties (collagen lattice contraction) in strain RDEB-FB1 ([2]; RDEB-FB1, 20 μM, absence of TGF-β1) | reduction of pepsin-soluble collagens deposited into the ECM ([3]; 5 μM, absence or presence of TGF-β1, vs untreated) [%]
1 | C[C@H](NC(=O)Cc1cc(F)cc(F)c1)C(=O)N[C@H](C(=O)OC(C)(C)C)c1ccccc1 [DAPT, N—[N-(3,5-difluorophenacetyl)-L-alanyl]-S-phenylglycine t-butyl ester] | slight but statistically significant reduction of proliferation rate | didn't exhibit significant variations | significant, although less conspicuous | DAPT-mediated reduction of collagen deposition in each experimental condition, though the difference was moderate |  |  |  |  | 
2 | CCC[C@H](N[C@H]1CCc2cc(F)cc(F)c2C1)C(=O)Nc1cn(C(C)(C)CNCC(C)(C)C)cn1 [PF-03084014, (S)-2-((S)-5,7-difluoro-1,2,3,4-tetrahydronaphthalen-3-ylamino)-N-(1-(2-methyl-1-(neopentylamino)propan-2-yl)-1H-imidazol-4-yl)pentanamide] |  | modest but consistent in all RDEB-FB strains analyzed | marked reduction of contractility |  | reduction of cell viability | affected fibroblast proliferation in a time- and dose-dependent manner, in the absence of overt cytotoxicity | observed after 24 h of treatment, and became more evident after 48 h of treatment, even at low doses (5 and 10 μM) | striking inhibition of contractile properties | 50
